Reference: patent publication US10597388B2, “Pyridazinone herbicides” (FMC CORPORATION, priority 2014, dated 2020)

Columns and labels:
Format in all cases: in vivo
[1] = test system: foxtail, giant (giant foxtail, Setaria faberii); assay: Test A greenhouse herbicide test, pre- and postemergence
Outline: (§1)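 Seeds in loam–sand blend received a preemergence directed soil spray; plants at 2–10 cm, one- to two-leaf stage, received postemergence sprays. Compounds in a non-phytotoxic solvent with surfactant. After about 10 d in a greenhouse, injury rated visually versus untreated controls on a 0–100 scale (100 = complete control).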

[2] = test system: kochia (Kochia scoparia); assay: as above
Outline: as §1

[3] = test system: pigweed (Amaranthus retroflexus); assay: as above
Outline: as §1

[4] = test system: ragweed (common ragweed, Ambrosia elatior); assay: as above
Outline: as §1

[5] = test system: wheat (Triticum aestivum); assay: as above; details: Postemergence
Outline: as §1

[6] = test system: blackgrass (Alopecurus myosuroides); assay: Test C greenhouse herbicide test, pre- and postemergence
Outline: (§2)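 Pre- and postemergence greenhouse screen; values are visual control ratings, 0 meaning no effect and 100 complete kill, assigned relative to untreated plants after 13 to 15 d.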

[7] = test system: corn (Zea mays); assay: as above
Outline: as §2

[8] = test system: morningglory (Ipomoea coccinea); assay: as above
Outline: as §2

[9] = test system: pigweed (Amaranthus retroflexus); assay: as above
Outline: as §2

[10] = test system: ryegrass, Italian (Italian ryegrass, Lolium multiflorum); assay: as above
Outline: as §2

[11] = test system: velvetleaf (Abutilon theophrasti); assay: as above
Outline: as §2

[12] = Postemergence, 125 g ai/ha, 0 to 100 scale where 0 is no effect and 100 is complete control
[13] = Postemergence, 500 g ai/ha, visual rating after approx. 10 d, 0 to 100 scale (0 no effect, 100 complete control)
[14] = Preemergence, 125 g ai/ha, 0 to 100 scale where 0 is no effect and 100 is complete control
[15] = Preemergence, 500 g ai/ha, 0 to 100 scale where 0 is no effect and 100 is complete control
[16] = 125 g ai/ha, 0 to 100 scale where 0 is no effect and 100 is complete control
[17] = 500 g ai/ha, visual rating after approx. 10 d, 0 to 100 scale (0 no effect, 100 complete control)
[18] = Preemergence, 31 g ai/ha, scale 0 to 100, 0 is no effect, 100 is complete control
[19] = Preemergence, 62 g ai/ha, scale 0 to 100, 0 is no effect, 100 is complete control
[20] = Preemergence, 125 g ai/ha, scale 0 to 100, 0 is no effect, 100 is complete control
[21] = Preemergence, 250 g ai/ha, scale 0 to 100, 0 no effect, 100 complete control
[22] = Postemergence, 31 g ai/ha, scale 0 to 100 (0 no effect, 100 complete control)
[23] = Postemergence, 125 g ai/ha, scale 0 to 100, 0 is no effect, 100 is complete control
[24] = Postemergence, 250 g ai/ha, scale 0 to 100, 0 no effect, 100 complete control, 13 to 15 d
[25] = postemergence, 62 g ai/ha, scale 0 to 100, 0 no effect, 100 complete control
[26] = Postemergence, 62 g ai/ha, 0 to 100 scale (0 no effect, 100 complete control)
[27] = postemergence, 125 g ai/ha, scale 0 to 100, 0 no effect, 100 complete control

CC(=O)Oc1c(Cl)nn(C)c(=O)c1-c1c(C)sc2ccc(Cl)cc12 [Compound 116]
Plant response rating, Foxtail, Giant [1, 12]: 70 | Plant response rating, Foxtail, Giant [1, 13]: 100 | Foxtail, Giant plant response rating [1, 14]: 80 | Plant response rating, Foxtail, Giant [1, 15]: 100 | Plant response rating, Kochia [2, 12]: 30 | Plant response rating, Kochia [2, 13]: 60 | Kochia plant response rating [2, 14]: 30 | Plant response rating, Kochia [2, 15]: 100 | Plant response rating, Pigweed [3, 12]: 70 | Plant response rating, Pigweed [3, 13]: 100 | Pigweed plant response rating [3, 14]: 90 | Plant response rating, Pigweed [3, 15]: 90 | Plant response rating, Ragweed [4, 12]: 70 | Plant response rating, Ragweed [4, 13]: 100 | Ragweed plant response rating [4, 14]: 90 | Plant response rating, Ragweed [4, 15]: 90 | Plant response rating, Wheat [5, 16]: 20 | Plant response rating, Wheat [5, 17]: 50 | Plant response rating, Blackgrass [6, 18]: 0 | Plant response rating, Blackgrass [6, 19]: 5 | Plant response rating, Blackgrass [6, 20]: 30 | Blackgrass plant response rating [6, 21]: 35 | Plant response rating, Corn [7, 18]: 0 | Plant response rating, Corn [7, 19]: 0 | Plant response rating, Corn [7, 20]: 60 | Corn plant response rating [7, 21]: 25 | Plant response rating, Morningglory [8, 18]: 55 | Plant response rating, Morningglory [8, 19]: 80 | Plant response rating, Morningglory [8, 20]: 85 | Morningglory plant response rating [8, 21]: 98 | Plant response rating, Pigweed [9, 18]: 95 | Plant response rating, Pigweed [9, 19]: 100 | Plant response rating, Pigweed [9, 20]: 100 | Pigweed plant response rating [9, 21]: 100 | Plant response rating, Ryegrass, Italian [10, 18]: 5 | Plant response rating, Ryegrass, Italian [10, 19]: 30 | Plant response rating, Ryegrass, Italian [10, 20]: 70 | Ryegrass, Italian plant response rating [10, 21]: 90 | Plant response rating, Velvetleaf [11, 18]: 70 | Plant response rating, Velvetleaf [11, 19]: 85 | Plant response rating, Velvetleaf [11, 20]: 100 | Velvetleaf plant response rating [11, 21]: 100

Cc1nn(C)c(=O)c(-c2c(C)sc3ccc(C(F)(F)F)cc23)c1O [Compound 121]
Plant response rating, Foxtail, Giant [1, 12]: 60 | Plant response rating, Foxtail, Giant [1, 13]: 80 | Foxtail, Giant plant response rating [1, 14]: 80 | Plant response rating, Foxtail, Giant [1, 15]: 80 | Plant response rating, Kochia [2, 12]: 70 | Plant response rating, Kochia [2, 13]: 80 | Kochia plant response rating [2, 14]: 0 | Plant response rating, Kochia [2, 15]: 30 | Plant response rating, Pigweed [3, 12]: 90 | Plant response rating, Pigweed [3, 13]: 90 | Pigweed plant response rating [3, 14]: 100 | Plant response rating, Pigweed [3, 15]: 100 | Plant response rating, Ragweed [4, 12]: 90 | Plant response rating, Ragweed [4, 13]: 90 | Ragweed plant response rating [4, 14]: 60 | Plant response rating, Ragweed [4, 15]: 80 | Plant response rating, Wheat [5, 16]: 0 | Plant response rating, Wheat [5, 17]: 20 | Plant response rating, Blackgrass [6, 22]: 0 | Plant response rating, Blackgrass [6, 23]: 15 | Plant response rating, Blackgrass [6, 24]: 50 | Plant response rating, Blackgrass [6, 18]: 10 | Plant response rating, Blackgrass [6, 19]: 45 | Plant response rating, Blackgrass [6, 20]: 45 | Blackgrass plant response rating [6, 21]: 60 | Blackgrass plant response rating [6, 25]: 15 | Plant response rating, Corn [7, 22]: 0 | Plant response rating, Corn [7, 23]: 5 | Plant response rating, Corn [7, 24]: 5 | Plant response rating, Corn [7, 18]: 0 | Plant response rating, Corn [7, 19]: 0 | Plant response rating, Corn [7, 20]: 0 | Corn plant response rating [7, 21]: 5 | Corn plant response rating [7, 25]: 5 | Plant response rating, Morningglory [8, 22]: 98 | Plant response rating, Morningglory [8, 23]: 100 | Plant response rating, Morningglory [8, 24]: 98 | Plant response rating, Morningglory [8, 18]: 25 | Plant response rating, Morningglory [8, 19]: 55 | Plant response rating, Morningglory [8, 20]: 85 | Morningglory plant response rating [8, 21]: 90 | Plant response rating, Pigweed [9, 22]: 75 | Plant response rating, Pigweed [9, 23]: 90 | Plant response rating, Pigweed [9, 24]: 98 | Plant response rating, Pigweed [9, 18]: 100 | Plant response rating, Pigweed [9, 19]: 98 | Plant response rating, Pigweed [9, 20]: 90 | Pigweed plant response rating [9, 21]: 100 | Plant response rating, Ryegrass, Italian [10, 22]: 85 | Plant response rating, Ryegrass, Italian [10, 23]: 90 | Plant response rating, Ryegrass, Italian [10, 24]: 90 | Plant response rating, Ryegrass, Italian [10, 18]: 75 | Plant response rating, Ryegrass, Italian [10, 19]: 90 | Plant response rating, Ryegrass, Italian [10, 20]: 95 | Ryegrass, Italian plant response rating [10, 21]: 100 | Plant response rating, Velvetleaf [11, 22]: 10 | Plant response rating, Velvetleaf [11, 23]: 75 | Plant response rating, Velvetleaf [11, 24]: 80 | Plant response rating, Velvetleaf [11, 18]: 60 | Plant response rating, Velvetleaf [11, 19]: 75 | Plant response rating, Velvetleaf [11, 20]: 85 | Velvetleaf plant response rating [11, 21]: 95

Cc1nn(C)c(=O)c(-c2cccc3ccc(Br)cc23)c1O [Compound 126]
Plant response rating, Foxtail, Giant [1, 12]: 20 | Plant response rating, Foxtail, Giant [1, 13]: 60 | Foxtail, Giant plant response rating [1, 14]: 10 | Plant response rating, Foxtail, Giant [1, 15]: 70 | Plant response rating, Kochia [2, 12]: 90 | Plant response rating, Kochia [2, 13]: 90 | Kochia plant response rating [2, 14]: 50 | Plant response rating, Kochia [2, 15]: 90 | Plant response rating, Pigweed [3, 12]: 90 | Plant response rating, Pigweed [3, 13]: 100 | Pigweed plant response rating [3, 14]: 100 | Plant response rating, Pigweed [3, 15]: 100 | Plant response rating, Ragweed [4, 12]: 90 | Plant response rating, Ragweed [4, 13]: 90 | Ragweed plant response rating [4, 14]: 70 | Plant response rating, Ragweed [4, 15]: 80 | Plant response rating, Wheat [5, 16]: 0 | Plant response rating, Wheat [5, 17]: 20 | Plant response rating, Blackgrass [6, 22]: 5 | Blackgrass plant response rating [6, 26]: 5 | Plant response rating, Blackgrass [6, 23]: 10 | Plant response rating, Blackgrass [6, 24]: 40 | Plant response rating, Corn [7, 22]: 10 | Corn plant response rating [7, 26]: 10 | Plant response rating, Corn [7, 23]: 20 | Plant response rating, Corn [7, 24]: 25 | Plant response rating, Morningglory [8, 22]: 95 | Morningglory plant response rating [8, 26]: 95 | Plant response rating, Morningglory [8, 23]: 98 | Plant response rating, Morningglory [8, 24]: 98 | Plant response rating, Pigweed [9, 22]: 85 | Pigweed plant response rating [9, 26]: 90 | Plant response rating, Pigweed [9, 23]: 95 | Plant response rating, Pigweed [9, 24]: 95 | Plant response rating, Ryegrass, Italian [10, 22]: 80 | Ryegrass, Italian plant response rating [10, 26]: 85 | Plant response rating, Ryegrass, Italian [10, 23]: 90 | Plant response rating, Ryegrass, Italian [10, 24]: 90 | Plant response rating, Velvetleaf [11, 22]: 30 | Velvetleaf plant response rating [11, 26]: 85 | Plant response rating, Velvetleaf [11, 23]: 98 | Plant response rating, Velvetleaf [11, 24]: 95

COC(=O)Oc1c(C)nn(C)c(=O)c1-c1ccc(F)c2ccccc12 [Compound 130]
Plant response rating, Foxtail, Giant [1, 12]: 70 | Plant response rating, Foxtail, Giant [1, 13]: 90 | Foxtail, Giant plant response rating [1, 14]: 30 | Plant response rating, Foxtail, Giant [1, 15]: 90 | Plant response rating, Kochia [2, 12]: 100 | Plant response rating, Kochia [2, 13]: 100 | Kochia plant response rating [2, 14]: 60 | Plant response rating, Kochia [2, 15]: 100 | Plant response rating, Pigweed [3, 12]: 100 | Plant response rating, Pigweed [3, 13]: 100 | Pigweed plant response rating [3, 14]: 90 | Plant response rating, Pigweed [3, 15]: 100 | Plant response rating, Ragweed [4, 12]: 70 | Plant response rating, Ragweed [4, 13]: 100 | Ragweed plant response rating [4, 14]: 60 | Plant response rating, Ragweed [4, 15]: 90 | Plant response rating, Wheat [5, 16]: 0 | Plant response rating, Wheat [5, 17]: 30 | Plant response rating, Blackgrass [6, 22]: 30 | Blackgrass plant response rating [6, 26]: 35 | Plant response rating, Blackgrass [6, 24]: 60 | Blackgrass plant response rating [6, 27]: 55 | Plant response rating, Corn [7, 22]: 5 | Corn plant response rating [7, 26]: 5 | Plant response rating, Corn [7, 24]: 15 | Corn plant response rating [7, 27]: 5 | Plant response rating, Morningglory [8, 22]: 75 | Morningglory plant response rating [8, 26]: 80 | Plant response rating, Morningglory [8, 24]: 100 | Morningglory plant response rating [8, 27]: 85 | Plant response rating, Pigweed [9, 22]: 50 | Pigweed plant response rating [9, 26]: 70 | Plant response rating, Pigweed [9, 24]: 90 | Pigweed plant response rating [9, 27]: 90 | Plant response rating, Ryegrass, Italian [10, 22]: 90 | Ryegrass, Italian plant response rating [10, 26]: 90 | Plant response rating, Ryegrass, Italian [10, 24]: 95 | Ryegrass, Italian plant response rating [10, 27]: 95 | Plant response rating, Velvetleaf [11, 22]: 75 | Velvetleaf plant response rating [11, 26]: 70 | Plant response rating, Velvetleaf [11, 24]: 98 | Velvetleaf plant response rating [11, 27]: 98
